The values below come from US20250179047A1, “5-[7-(3,4-DIHYDRO-1H-ISOQUINOLINE-2-CARBONYL)-1,2,3,4 TETRAHYDROISOQUINOLIN-6-YL]-1H-PYRROLE-3-CARBOXAMIDE DERIVATIVES, PHARMACEUTICAL COMPOSITIONS CONTAINING THEM AND THEIR USES AS PRO-APOPTOTIC AGENTS” (LES LABORATOIRES SERVIER, priority 2022, published 2025).

Molecules are shown by their SMILES.

One experiment concerns KMS12PE Bcl2 R129L. Put plainly: In vitro cytotoxicity CellTiterGlo 72 h, KMS12PE Bcl2 R129L. To be noted: Homo sapiens, KMS-12-PE, read-out: C50 nM, KMS12PE Bcl2 R129L. In kind it is cell-based. The method, then: (§1) KMS-12-PE (ACC 606) were purchased from the Leibniz-Institute DSMZ (Braunschweig, Germany) and were grown at 37° C. in a humidified atmosphere with 5% CO2 in media recommended by the suppliers. Lentiviral particles containing Bcl-2 wild type (also named “Bcl2 WT”), Bcl-2 mutated on G101V (also named “Bcl2 G101V”), Bcl-2 mutated on D103Y (also named “Bcl2 D103Y”), Bcl-2 mutated on D103V (also named “Bcl2 D103V”), Bcl-2 mutated on D103E (also named “Bcl2 D103E”), Bcl-2 mutated on F104I (also named “Bcl2 F104I”), Bcl-2 mutated on F104L (also named “Bcl2 F104L”), Bcl-2 mutated on D111A (also named “Bcl2 D111A”), Bcl-2 mutated on A113G (also named “Bcl2 A113G”), Bcl-2 mutated on R129L (also named “Bcl2 R129L”), Bcl-2 mutated on V156D (also named “Bcl2 V156D”) were cloned into pcLV-CMV-DEST-IRES-TagRFP. Lentiviral particles (1×10^6) were mixed with Polybrene at 8 μg/ml and transduced by spinoculation for 1 h at 32° C. and incubated overnight. After 8 days, TagRFP positive-cells were sorted by FACS. BCL2 expression was monitored by immunoblotting using anti-Flag and anti-BCL2 antibodies. Cells were seeded into 96-wells plates and treated with 1:3.16 serial dilution of compounds (9 different concentrations). Cell viability was assessed using CellTiterGlo reagent following treatment for 72 h. Results were normalized to the viability of cells without compounds (control wells). The C50 values were calculated using nonlinear regression algorithms in XCell software.
(In general: ATP-based viability assays read luminescence as a measure of living cells.)

The next experiment concerns KMS12PE. Description: In vitro cytotoxicity CellTiterGlo 72 h, KMS12PE. In kind it is cell-based. To be noted: Homo sapiens, KMS-12-PE, read-out: C50 nM, KMS12PE. The procedure:
as §1

The subject of the next experiment is KMS12PE Bcl2 A113G. Description: In vitro cytotoxicity CellTiterGlo 72 h, KMS12PE Bcl2 A113G. In kind it is cell-based. To be noted: Homo sapiens, KMS-12-PE, read-out: C50 nM, KMS12PE Bcl2 A113G. The method, then:
as §1

The subject of a further experiment is KMS12PE Bcl2 WT. Put plainly: In vitro cytotoxicity CellTiterGlo 72 h, KMS12PE Bcl2 WT. In kind it is cell-based. To be noted: Homo sapiens, KMS-12-PE, read-out: C50 nM, KMS12PE Bcl2 WT. The procedure:
as §1

A further experiment deals with KMS12PE Bcl2 D103V. Description: In vitro cytotoxicity CellTiterGlo 72 h, KMS12PE Bcl2 D103V. In kind it is cell-based. The settings on record: Homo sapiens, KMS-12-PE, read-out: C50 nM, KMS12PE Bcl2 D103V. The procedure:
as §1

Another experiment relates to KMS12PE Bcl2 G101V. Put plainly: In vitro cytotoxicity CellTiterGlo 72 h, KMS12PE Bcl2 G101V. In kind it is cell-based. The settings on record: Homo sapiens, KMS-12-PE, read-out: C50 nM, KMS12PE Bcl2 G101V. The method, then:
as §1

The target of another experiment is BCL2 G101V (Homo sapiens, UniProt P10415, G101V). Description: TR-FRET competitive binding assay, BCL2 G101V. To be noted: BCL2 G101V; Ki determined from IC50; read-out: TR_FRET EKI_Bcl2 G101V. In outline: (§2)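 Terbium-labelled N-terminal Halo-fusion BCL2 or BCLXL (E. coli), 0.5 nM, competed against fluorescein-labelled PUMA peptide (2 or 20 nM) for 2 h at 23° C in 50 mM Hepes pH 7.5, 150 mM NaCl, 5% DMSO. TR-FRET 520/495 nm ratio gave IC50 by four-parameter fit; Ki derived from IC50.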

Another experiment relates to KMS12PE Bcl2 V156D. Description: In vitro cytotoxicity CellTiterGlo 72 h, KMS12PE Bcl2 V156D. In kind it is cell-based. To be noted: Homo sapiens, KMS-12-PE, read-out: C50 nM, KMS12PE Bcl2 V156D. The method, then:
as §1

Another experiment addresses BCLXL WT (Homo sapiens (Human), UniProt Q07817). Description: TR-FRET competitive binding assay, BCLXL WT. To be noted: for Ki: BCLXL WT, Ki determined from IC50, read-out: TR_FRET EKI BclxL; for TR_FRET EKI BCLxL/WT selectivty ratio: ratio Ki BCLxL / Ki BCL2 WT. The method in brief:
as §2
(In general: In TR-FRET formats the signal depends on donor and acceptor labels being close together.)

The next experiment concerns KMS12PE Bcl2 F104I. Put plainly: In vitro cytotoxicity CellTiterGlo 72 h, KMS12PE Bcl2 F104I. In kind it is cell-based. To be noted: Homo sapiens, KMS-12-PE, read-out: C50 nM, KMS12PE Bcl2 F104I. The method, then:
as §1

Sequence of BCLXL WT (Q07817 other isoform, or with tags, fused parts or gaps): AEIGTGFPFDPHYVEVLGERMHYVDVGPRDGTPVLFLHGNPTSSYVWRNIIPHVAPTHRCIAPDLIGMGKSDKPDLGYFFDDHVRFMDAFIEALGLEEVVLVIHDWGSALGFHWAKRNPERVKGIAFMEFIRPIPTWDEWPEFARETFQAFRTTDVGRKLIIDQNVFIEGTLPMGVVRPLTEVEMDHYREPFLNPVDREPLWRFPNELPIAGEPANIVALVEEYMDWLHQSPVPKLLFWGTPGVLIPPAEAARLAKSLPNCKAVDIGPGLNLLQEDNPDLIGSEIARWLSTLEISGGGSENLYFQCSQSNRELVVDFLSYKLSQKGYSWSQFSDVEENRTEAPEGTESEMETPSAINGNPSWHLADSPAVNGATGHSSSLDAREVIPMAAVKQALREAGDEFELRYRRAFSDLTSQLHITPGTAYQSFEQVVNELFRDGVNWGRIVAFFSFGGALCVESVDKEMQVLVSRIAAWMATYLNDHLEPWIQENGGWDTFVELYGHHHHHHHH

Take `Cc1c(N(C(=O)c2cc(-c3cc4c(cc3C(=O)N3Cc5ccccc5C[C@H]3CN3CCC[C@H](C)C3)CN(C(=O)Cc3ccc(OCCN5CCOCC5)cc3F)CC4)n(C)c2C)c2ccc(O)cc2)cc(C#N)n1C` [Example 107]: the IC50 in the experiment on KMS12PE Bcl2 R129L worked out at 1.12 nM; with KMS12PE, 0.15 nM; in the experiment with KMS12PE Bcl2 A113G it was 2.82 nM; in the experiment on KMS12PE Bcl2 WT, 1.59 nM; with KMS12PE Bcl2 D103V it was 1.94 nM; with KMS12PE Bcl2 G101V, 9.13 nM. In addition, the IC50 was 5.93 nM in the experiment with KMS12PE Bcl2 V156D and 23.6 nM in the experiment with KMS12PE Bcl2 F104I. Besides, the results for the Ki at BCL2 G101V and on BCLXL WT were 0.4 nM and 7.8 nM, respectively. The “TR_FRET EKI BCLxL/WT selectivty ratio” value at BCLXL WT turned out to be 87.6.

Turning to `Cc1c(N(C(=O)c2cc(-c3cc4c(cc3C(=O)N3Cc5ccccc5C[C@H]3C)CN(C(=O)Cc3ccc(OCCN5CCC(F)CC5)cc3)CC4)n(C)c2C)c2ccc(O)cc2)cc(C#N)n1C` [Example 53, N-(5-cyano-1,2-dimethyl-1H-pyrrol-3-yl)-5-[2-(2-{4-[2-(4-fluoropiperidin-1-yl)ethoxy]phenyl}acetyl)-7-[(3R)-3-methyl-1,2,3,4-tetrahydroisoquinoline-2-carbonyl]-1,2,3,4-tetrahydroisoquinolin-6-yl]-N-(4-hydroxyphenyl)-1,2-dimethyl-1H-pyrrole-3-carboxamide], the IC50 was determined as 2.38 nM in the experiment on KMS12PE Bcl2 R129L; 0.35 nM in the experiment on KMS12PE; 5.68 nM with KMS12PE Bcl2 A113G; 2.88 nM in the experiment with KMS12PE Bcl2 WT; 5.38 nM in the experiment with KMS12PE Bcl2 D103V; 16.3 nM in the experiment with KMS12PE Bcl2 G101V. In addition, the IC50 is 21.4 nM in the experiment on KMS12PE Bcl2 V156D and 72.7 nM with KMS12PE Bcl2 F104I. Moreover, the results for the Ki on BCL2 G101V and on BCLXL WT were 0.2 nM and 1.2 nM, respectively. Also, the “TR_FRET EKI BCLxL/WT selectivty ratio” value on BCLXL WT was 18.5.

As for `Cc1c(N(C(=O)c2cc(-c3cc4c(cc3C(=O)N3Cc5ccccc5C[C@H]3C)CN(C(=O)Cc3ccc(OCCC5CCOCC5)cc3)CC4)n(C)c2C)c2ccc(O)cc2)cc(C#N)n1C` [Example 27, N-(5-cyano-1,2-dimethyl-1H-pyrrol-3-yl)-N-(4-hydroxyphenyl)-1,2-dimethyl-5-{7-[(3R)-3-methyl-1,2,3,4-tetrahydroisoquinoline-2-carbonyl]-2-(2-{4-[2-(oxan-4-yl)ethoxy]phenyl}acetyl)-1,2,3,4-tetrahydroisoquinolin-6-yl}-1H-pyrrole-3-carboxamide], the IC50 with KMS12PE Bcl2 R129L worked out at 0.99 nM; in the experiment on KMS12PE, 0.19 nM; in the experiment with KMS12PE Bcl2 A113G it was 2.79 nM; in the experiment with KMS12PE Bcl2 WT it was 1.53 nM; in the experiment with KMS12PE Bcl2 D103V it was 1.55 nM; in the experiment on KMS12PE Bcl2 G101V it was 7.19 nM. Also, the IC50 with KMS12PE Bcl2 V156D worked out at 3.84 nM; with KMS12PE Bcl2 F104I it was 29.1 nM. Further, the Ki was determined as 1.2 nM at BCL2 G101V and 10.1 nM on BCLXL WT. The “TR_FRET EKI BCLxL/WT selectivty ratio” value at BCLXL WT was 12.6.

With `Cc1c(N(C(=O)c2cc(-c3cc4c(cc3C(=O)N3Cc5ccccc5C[C@H]3CN3CCCCC3)CN(C(=O)Cc3ccc(OCCC5CCOCC5)cc3)CC4)n(C)c2C)c2ccc(O)cc2)cc(C#N)n1C` [Example 66, N-(5-cyano-1,2-dimethylpyrrol-3-yl)-N-(4-hydroxyphenyl)-1,2-dimethyl-5-[2-(2-{4-[2-(oxan-4-yl)ethoxy]phenyl}acetyl)-7-{[(3S)-3-(piperidin-1-ylmethyl)-3,4-dihydro-1H-isoquinolin-2-yl]carbonyl}-3,4-dihydro-1H-isoquinolin-6-yl]pyrrole-3-carboxamide], the IC50 was found to be 1.32 nM in the experiment with KMS12PE Bcl2 R129L; 0.2 nM in the experiment on KMS12PE; 2.89 nM in the experiment on KMS12PE Bcl2 A113G; 1.74 nM in the experiment with KMS12PE Bcl2 WT; 2.22 nM in the experiment with KMS12PE Bcl2 D103V; 10.1 nM in the experiment with KMS12PE Bcl2 G101V. In addition, the results for the IC50 in the experiment on KMS12PE Bcl2 V156D and with KMS12PE Bcl2 F104I were 7.65 nM and 65.2 nM, respectively. Moreover, the Ki at BCL2 G101V was determined as 0.5 nM; on BCLXL WT it was 4 nM. On BCLXL WT, the “TR_FRET EKI BCLxL/WT selectivty ratio” value is recorded as 47.6.

Consider `Cc1c(N(C(=O)c2cc(-c3cc4c(cc3C(=O)N3Cc5ccccc5C[C@H]3C)CN(C(=O)Cc3ccc(OCCN5CCSCC5)cc3)CC4)n(C)c2C)c2ccc(O)cc2)cc(C#N)n1C` [Example 55, N-(5-cyano-1,2-dimethyl-1H-pyrrol-3-yl)-N-(4-hydroxyphenyl)-1,2-dimethyl-5-{7-[(3R)-3-methyl-1,2,3,4-tetrahydroisoquinoline-2-carbonyl]-2-(2-{4-[2-(thiomorpholin-4-yl)ethoxy]phenyl}acetyl)-1,2,3,4-tetrahydroisoquinolin-6-yl}-1H-pyrrole-3-carboxamide], for which the IC50 with KMS12PE Bcl2 R129L is 2.46 nM; in the experiment with KMS12PE, 0.33 nM; in the experiment with KMS12PE Bcl2 A113G, 5.53 nM; with KMS12PE Bcl2 WT, 2.61 nM; in the experiment on KMS12PE Bcl2 D103V, 4.48 nM; in the experiment on KMS12PE Bcl2 G101V, 13.7 nM. Also, the IC50 was 14.9 nM in the experiment on KMS12PE Bcl2 V156D and 57.8 nM with KMS12PE Bcl2 F104I. The Ki on BCL2 G101V came out at 0.2 nM; at BCLXL WT, 2.6 nM. The “TR_FRET EKI BCLxL/WT selectivty ratio” value at BCLXL WT is given as 26.5.
